Data reported in US20240307349A1, “METHODS FOR THE PREPARATION AND DOSE REGIMENS FOR USE OF SSTR4 AGONISTS AND SALTS THEREOF” (priority 2023, published 2024).
Like-named read-outs stand apart in the source and are kept apart here.

Legend:
Assay type in all cases: in vivo, human
[1] = system: participants with DPNP; experiment: H0P-MC-NP03 Phase 2 placebo-controlled trial, diabetic peripheral neuropathic pain
Description: The purpose of this study was to test whether Example 5 is efficacious in relieving diabetic peripheral neuropathic pain (DPNP). Data was collected to assess the safety and tolerability of Example 5 in this study population and previously discussed above. Pharmacokinetic properties and pharmacodynamic effects were also explored. The totality of data from this proof-of-concept study will assess the benefits and risks associated with Example 5.
NP03 was an 8-week, Phase 2, randomized, double-blind, placebo-controlled study that compared Example 5 versus placebo in participants with DPNP.
Participants received either Example 5 or placebo. Based on tolerability, participants received up to a maximum of 3 capsules orally (each capsule was 200 mg), twice daily, approximately every 12 hours, for a total dose of 600 mg.
The primary clinical question of interest was, “What is the treatment difference between Example 5 and placebo assessed using mean change from baseline to endpoint (Week 8) for average pain intensity (API) as measured by the Numeric Rating Scale (NRS) in participants with diabetic peripheral neuropathic pain (DPNP) regardless of initiation of rescue medication or other allowed concomitant medication and assuming that they would have continued initially randomized treatment condition?”
Participants were randomly assigned 2:1 to Example 5 or placebo. Based on tolerability, participants could take up to a maximum of 3 capsules orally (each capsule was 200 mg), twice daily (BID), approximately every 12 hours, for a total dose of 600 mg BID.
The protocol allowed changes to the dose for individual participants, but the maximum daily dose should not exceed 600 mg BID. The starting dose level was 200 mg BID. Decisions to change the dose level were made by the investigator in discussion with the participants based on the adverse events (AEs) reported for tolerability. The medical monitor was contacted as needed. All changes in dose level had to occur before the end of Visit 4 (Study Week 2).
NP03 was an 8-week, multicenter, randomized, DB, placebo-controlled, Phase 2, proof-of-concept study to evaluate Example 5 for the treatment of DPNP. Participants were randomly assigned 2:1 to Example 5 or placebo. A total of 68 participants enrolled into the NP03 ISA, with 45 participants randomly assigned to Example 5, and 23 participants assigned to placebo. The safety population consisted of the 68 participants who received at least 1 dose of study intervention and included all participants in the enrolled population. Using a titration scheme, Example 5 was administered orally as a maximum of 3 capsule (200 mg per capsule) for a total dose of 600 mg approximately every 12 hours, with or without food. Fifty percent of participants completed the BD treatment phase.

[2] = system: participants with CLBP; experiment: H0P-MC-BP03 Phase 2 placebo-controlled trial, chronic low back pain
Description: The purpose of this study was to test whether Example 5 is efficacious in relieving chronic low back pain (CLBP). Data will be collected to assess the safety and tolerability of Example 5 in this study population, which was previously discussed. Pharmacokinetic (PK) properties and pharmacodynamic (PD) effects were also be explored. The totality of data from this proof-of-concept study will assess the benefits and risks associated with Example 5.
BP03 was an 8-week, Phase 2, randomized, double-blind, placebo-controlled study that will compare Example 5 versus placebo in participants with CLBP. Participants received either Example 5 or placebo. Based on tolerability, participants took up to a maximum of 3 capsules orally (each capsule is 200 mg), twice daily (BID), approximately every 12 hours, for a total dose of 600 mg.
The primary clinical question of interest was, “What is the treatment difference between Example 5 and placebo assessed using mean change from baseline to endpoint (Week 8) for average pain intensity (API) as measured by the numeric rating scale (NRS) in participants with CLBP regardless of initiation of rescue medication or other allowed concomitant medication and assuming that they would have continued initially randomized treatment condition?”

[3] = Phase 1 study LXBA, multiple-dose steady-state plasma PK in healthy subjects; conditions: for RA (accumulation ratio based on AUC(0-τ)) / AUC: tau = 12 hours; for Cmax / AUC(0-t) / AUC: human, in vivo, steady state; for Cmax: n = 6, geometric mean; for AUC(0-t): = 2 × AUC(0-τ), read-out: AUC(0-24); for AUC: geometric mean, read-out: AUC(0-τ)
Experimental: The multiple-dose PK of Example 5 were evaluated at doses of 200 mg, 400 mg, and 600 mg, twice daily. The median time to tmax ranged from 1 to 3 hours post dose.
Study LXBA is a completed study and consisted of 2 parts, Part A and Part B (TABLE 1). Part A of the study had 18 healthy subjects in 3 dosing cohorts, and Part B had 9 healthy subjects exposed to Example 5. […] In Part A, all treatment-emergent adverse events (TEAEs) were mild in severity except for 1 moderate event of presyncope. Constipation and insomnia (2 events each) were the only TEAEs reported in >1 subject. In Part B, the reported TEAEs were dysgeusia, nausea, and vomiting, which were all mild in severity.

For `Cc1cccnc1OCC(C)(C)NC(=O)[C@H]1[C@@H]2CNC[C@@H]21.O=C(O)C(O)C(O)C(=O)O` [Example 5, (1R,5S,6r)-N-(2-Methyl-1-((3-methylpyridin-2-yl)oxy)propan-2-yl)-3-azabicyclo[3.1.0]hexane-6-carboxamide L-tartrate sesquihydrate], the “Mean Change of Average Pain Intensity, Weekly Average of NRS” value (from here on “Mean Change of Average Pain Intensity”) ([1]; 400 mg BID, week 1, n = 8) was −0.74, the “Observed Mean of Average Pain Intensity, Weekly Average of NRS” value (“Observed Mean of Average Pain Intensity” below) ([1]; 400 mg BID, week 1, n = 8) was 5.76 and the “Mean Change of Average Pain Intensity” value ([1]; 400 mg BID, week 2, n = 9) was −1.62. For the same molecule, the “Observed Mean of Average Pain Intensity” value ([1]; 400 mg BID, week 2, n = 9) was 4.90, the “Mean Change of Average Pain Intensity” value ([1]; 400 mg BID, week 3, n = 9) was −2.12 and the “Observed Mean of Average Pain Intensity” value ([1]; 400 mg BID, week 3, n = 9) was 4.41. For the same molecule, the “Mean Change of Average Pain Intensity” value ([1]; 400 mg BID, week 4, n = 6) was −2.05, the “Observed Mean of Average Pain Intensity” value ([1]; 400 mg BID, week 4, n = 6) was 5.46 and the “Mean Change of Average Pain Intensity” value ([1]; 400 mg BID, week 5, n = 4) was −3.37. For the same molecule, the “Observed Mean of Average Pain Intensity” value ([1]; 400 mg BID, week 5, n = 4) was 4.66, the “Mean Change of Average Pain Intensity” value ([1]; 400 mg BID, week 6, n = 5) was −2.72 and the “Observed Mean of Average Pain Intensity” value ([1]; 400 mg BID, week 6, n = 5) was 4.15. For the same molecule, the “Mean Change of Average Pain Intensity” value ([1]; 400 mg BID, week 7, n = 4) was −3.34, the “Observed Mean of Average Pain Intensity” value ([1]; 400 mg BID, week 7, n = 4) was 2.96 and the “Mean Change of Average Pain Intensity” value ([1]; 400 mg BID, week 8, n = 4) was −3.39. The “Observed Mean of Average Pain Intensity” value ([1]; 400 mg BID, week 8, n = 4) was 4.17, the “Mean Change of Average Pain Intensity” value ([1]; 600 mg BID, week 1, n = 30) was −0.72 and the “Observed Mean of Average Pain Intensity” value ([1]; 600 mg BID, week 1, n = 30) was 5.77. The “Mean Change of Average Pain Intensity” value ([1]; 600 mg BID, week 2, n = 29) was −1.59, the “Observed Mean of Average Pain Intensity” value ([1]; 600 mg BID, week 2, n = 29) was 4.91 and the “Mean Change of Average Pain Intensity” value ([1]; 600 mg BID, week 3, n = 23) was −2.09. The “Observed Mean of Average Pain Intensity” value ([1]; 600 mg BID, week 3, n = 23) was 4.82, the “Mean Change of Average Pain Intensity” value ([1]; 600 mg BID, week 4, n = 24) was −2.18 and the “Observed Mean of Average Pain Intensity” value ([1]; 600 mg BID, week 4, n = 24) was 4.64. The “Mean Change of Average Pain Intensity” value ([1]; 600 mg BID, week 5, n = 21) was −2.43, the “Observed Mean of Average Pain Intensity” value ([1]; 600 mg BID, week 5, n = 21) was 4.18 and the “Mean Change of Average Pain Intensity” value ([1]; 600 mg BID, week 6, n = 19) was −2.37. For the same molecule, the “Observed Mean of Average Pain Intensity” value ([1]; 600 mg BID, week 6, n = 19) was 4.26, the “Mean Change of Average Pain Intensity” value ([1]; 600 mg BID, week 7, n = 17) was −2.64 and the “Observed Mean of Average Pain Intensity” value ([1]; 600 mg BID, week 7, n = 17) was 3.78. The “Mean Change of Average Pain Intensity” value ([1]; 600 mg BID, week 8, n = 16) was −2.74, the “Observed Mean of Average Pain Intensity” value ([1]; 600 mg BID, week 8, n = 16) was 3.79 and the “Mean change from baseline assessment to endpoint for API as measured using the NRS” value ([1]; 8 weeks after initial treatment administration, up to 600 mg Q12H, n = 45) was −2.75. The “most secondary endpoints compared with placebo” value ([1]; DPNP) was “greater numerical improvements”, the “decrease in API measured by NRS, 400 mg dosing regimen compared with the 600 mg dosing regimen” value ([1]; Week 8) was “greater decrease in API measured by NRS in the 400 mg dosing regimen” and the “primary objective: posterior probability for change from baseline in API versus placebo” value ([1]; Week 8, DPNP) was “met the prespecified threshold”. The “Mean change from baseline assessment to endpoint for worst pain intensity as measured by weekly NRS” value ([1]; Week 8, n = 45) was −3.06, the “Mean change from baseline assessment to endpoint on the VAS for pain” value ([1]; Week 8, n = 45) was −30.20 and the “Mean change from baseline to endpoint for the BPI-SFM” value ([1]; Week 8, n = 45) was −2.31. For the same molecule, the “Overall improvement to endpoint as measured by PGIC” value ([1]; Week 8, n = 45) was 2.3, the “Mean change from baseline assessment to endpoint for API as measured using the NRS” value ([2]; 8 weeks after initial treatment administration, up to 600 mg Q12H, n = 102) was −1.7 and the “primary objective: efficacy versus placebo, API by weekly average of NRS” value ([2]; Week 8, CLBP) was “did not meet the prespecified threshold”. The “RA (accumulation ratio based on AUC(0-τ))” value ([3]; 200 mg BID) was 1.49, the “RA (accumulation ratio based on AUC(0-τ))” value ([3]; 400 mg BID) was 1.81 and the “RA (accumulation ratio based on AUC(0-τ))” value ([3]; 600 mg BID) was 1.64. It also gave a Cmax ([3]; 200 mg BID (400 mg)) of 1620 ng/mL, an AUC(0-t) ([3]; 200 mg BID) of 23000 ng·h/mL and an AUC ([3]; 200 mg BID) of 11500 ng·h/mL. For the same molecule, the Cmax ([3]; 400 mg BID (800 mg)) was 3240 ng/mL, the AUC(0-t) ([3]; 400 mg BID) was 51000 ng·h/mL and the AUC ([3]; 400 mg BID) was 25800 ng·h/mL. The Cmax ([3]; 600 mg BID (1200 mg)) was 5210 ng/mL, the AUC(0-t) ([3]; 600 mg BID) was 77400 ng·h/mL and the AUC ([3]; 600 mg BID) was 38700 ng·h/mL. The “steady-state Cmax and AUC0-24 inter-subject coefficient of variations” value ([3]; multiple dose, 200 mg, 400 mg and 600 mg twice daily) was < 25%.
